Test results reported in article PMC6822579, “A novel benzoxazinone derivative YLT-LL-11 inhibits diffuse large B-cell lymphoma growth via inducing cell cycle arrest and apoptosis” (Bioscience Reports, 2019).

Biological target: T1, BRD4 (D1); BRD4 (BD1) (Homo sapiens, UniProt O60885)
T1 construct: first bromodomain (D1/BD1), purchased from Biogenie, Canada
Assay: AlphaScreen peptide displacement assay
Assay type: binding

## CCC1Oc2cc(NS(=O)(=O)c3ccccc3OC)ccc2NC1=O (stereo not shown) [compound 5, N-(2-ethyl-3-oxo-3,4-dihydro-2H-benzo[b] [1, 4]oxazin-7-yl)-2-methoxybenzenesulfonamide]
  IC50: 0.999 µM
